These are literature values, as cited in patent EP0970199B1, “FLUORESCENT PROTEIN SENSORS FOR DETECTION OF ANALYTES” (The Regents of the University of California, priority 1997, dated 1998).

The conditions of the series: fluorescein in 0.1 N NaOH; 9-aminoacridine in water.

Regarding `Nc1c2ccccc2nc2ccccc12` [9-aminoacridine], the “quantum yield of standard” value is recorded as 0.98.
